Assay results from patent US8952024B2, “Herbicidal pyrimidone derivatives” (E I du Pont de Nemours and Company, priority 2009, dated 2015).

What was measured:
Type in all cases: in vivo
[1] = system: chickweed (Stellaria media); assay: Test B postemergence plant response; settings: Postemergence
Method in brief: (§1)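 Visual ratings from 0 (no effect) to 100 (complete control), made against controls 13–15 days after treatment, kept in a greenhouse. Compounds were applied postemergence to potted plants at the 1- to 4-leaf stage (2–18 cm).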

[2] = system: winter barley (Hordeum vulgare); assay: Test B postemergence plant response; settings: for Barley plant response rating (0 to 100 scale): 62 g ai/ha, postemergence, 0 is no effect, 100 is complete control; for Plant response rating, Barley: Postemergence
Method in brief: as §1

[3] = system: canarygrass (Phalaris minor); assay: Test B postemergence plant response; settings: Postemergence
Method in brief: as §1

[4] = system: downy bromegrass (Bromus tectorum); assay: Test B pre-/postemergence plant response; settings: for Bromegrass, Downy plant response rating (0 to 100 scale): 62 g ai/ha, postemergence, 0 is no effect, 100 is complete control; for Plant response rating, Bromegrass, Downy: Postemergence
Method in brief: (§2)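 Response scores were assigned visually after 13 to 15 days in a greenhouse, comparing treated pots with controls on a 0–100 scale where 100 denotes complete control. Preemergence treatments went onto freshly seeded loam/sand soil; postemergence treatments onto plants 2 to 18 cm tall.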

[5] = system: wheat (Triticum aestivum); assay: Test B pre-/postemergence plant response; settings: Postemergence
Method in brief: as §2

[6] = system: morningglory (Ipomoea coccinea); assay: Test B pre-/postemergence plant response; settings: Postemergence
Method in brief: as §2

[7] = system: johnsongrass (Sorghum halepense); assay: Test B pre-/postemergence plant response; settings: Postemergence
Method in brief: as §2

[8] = system: bermudagrass (Cynodon dactylon); assay: Test B pre-/postemergence plant response; settings: for Bermudagrass plant response rating (0 to 100 scale): 62 g ai/ha, postemergence, 0 is no effect, 100 is complete control; for Plant response rating, Bermudagrass: Postemergence
Method in brief: as §2

[9] = system: goosegrass (Eleusine indica); assay: Test B pre-/postemergence plant response; settings: Postemergence
Method in brief: as §2

[10] = system: ragweed (common ragweed, Ambrosia elatior); assay: Test B pre-/postemergence plant response; settings: Postemergence
Method in brief: as §2

[11] = system: corn (Zea mays); assay: Test B pre-/postemergence plant response; settings: Postemergence
Method in brief: as §2

[12] = system: green foxtail (Setaria viridis); assay: Test B pre-/postemergence plant response; settings: Postemergence
Method in brief: as §2

[13] = system: Italian ryegrass (Lolium multiflorum); assay: Test B pre-/postemergence plant response; settings: Postemergence
Method in brief: as §2

[14] = system: blackgrass (Alopecurus myosuroides); assay: Test B pre-/postemergence plant response; settings: for Blackgrass plant response rating (0 to 100 scale): 62 g ai/ha, postemergence, 0 is no effect, 100 is complete control; for Plant response rating, Blackgrass: Postemergence
Method in brief: as §2

[15] = system: soybean (Glycine max); assay: Test B pre-/postemergence plant response; settings: Postemergence
Method in brief: as §2

[16] = system: velvetleaf (Abutilon theophrasti); assay: Test B pre-/postemergence plant response; settings: Postemergence
Method in brief: as §2

[17] = system: pigweed (Amaranthus retroflexus); assay: Test B pre-/postemergence plant response; settings: Postemergence
Method in brief: as §2

[18] = system: giant foxtail (Setaria faberii); assay: Test B pre-/postemergence plant response; settings: Postemergence
Method in brief: as §2

[19] = 31 g ai/ha, 0 to 100 scale (0 no effect, 100 complete control)
[20] = 125 g ai/ha, scale 0 to 100 (0 no effect, 100 complete control)
[21] = 250 g ai/ha, scale 0 to 100 (0 no effect, 100 complete control), 13 to 15 days

Compound: CCCn1c(-c2cc(Cl)cc(Cl)c2)ncc(C(=O)C2=C(O)CCCC2=O)c1=O [Compound 173]
- Plant response rating, Chickweed [1, 19]: 65
- Plant response rating, Chickweed [1, 20]: 100
- Plant response rating, Chickweed [1, 21]: 100
- Barley plant response rating (0 to 100 scale) ([2]; 13 to 15 days): 20
- Plant response rating, Barley [2, 19]: 5
- Plant response rating, Barley [2, 20]: 35
- Plant response rating, Barley [2, 21]: 50
- Plant response rating, Canarygrass [3, 19]: 10
- Plant response rating, Canarygrass [3, 20]: 40
- Plant response rating, Canarygrass [3, 21]: 80
- Bromegrass, Downy plant response rating (0 to 100 scale) ([4]; 13 to 15 days): 25
- Plant response rating, Bromegrass, Downy [4, 19]: 5
- Plant response rating, Bromegrass, Downy [4, 20]: 40
- Plant response rating, Bromegrass, Downy [4, 21]: 70
- Plant response rating, Wheat [5, 19]: 10
- Plant response rating, Wheat [5, 20]: 40
- Plant response rating, Wheat [5, 21]: 50
- Plant response rating, Morningglory [6, 19]: 75
- Plant response rating, Morningglory [6, 20]: 80
- Plant response rating, Morningglory [6, 21]: 95
- Plant response rating, Johnsongrass [7, 19]: 65
- Plant response rating, Johnsongrass [7, 20]: 95
- Bermudagrass plant response rating (0 to 100 scale) ([8]; 13 to 15 days): 98
- Plant response rating, Bermudagrass [8, 19]: 98
- Plant response rating, Bermudagrass [8, 20]: 100
- Plant response rating, Bermudagrass [8, 21]: 100
- Plant response rating, Goosegrass [9, 19]: 80
- Plant response rating, Goosegrass [9, 20]: 95
- Plant response rating, Goosegrass [9, 21]: 100
- Plant response rating, Ragweed [10, 19]: 55
- Plant response rating, Ragweed [10, 20]: 90
- Plant response rating, Ragweed [10, 21]: 98
- Plant response rating, Corn [11, 19]: 5
- Plant response rating, Corn [11, 20]: 60
- Plant response rating, Corn [11, 21]: 85
- Plant response rating, Foxtail, Green [12, 19]: 55
- Plant response rating, Foxtail, Green [12, 20]: 90
- Plant response rating, Foxtail, Green [12, 21]: 90
- Plant response rating, Ryegrass, Italian [13, 19]: 0
- Plant response rating, Ryegrass, Italian [13, 20]: 30
- Plant response rating, Ryegrass, Italian [13, 21]: 30
- Blackgrass plant response rating (0 to 100 scale) ([14]; 13 to 15 days): 10
- Plant response rating, Blackgrass [14, 19]: 5
- Plant response rating, Blackgrass [14, 20]: 30
- Plant response rating, Blackgrass [14, 21]: 50
- Plant response rating, Soybean [15, 19]: 60
- Plant response rating, Soybean [15, 20]: 95
- Plant response rating, Soybean [15, 21]: 100
- Plant response rating, Velvetleaf [16, 19]: 100
- Plant response rating, Velvetleaf [16, 20]: 100
- Plant response rating, Velvetleaf [16, 21]: 100
- Plant response rating, Pigweed [17, 19]: 85
- Plant response rating, Pigweed [17, 20]: 100
- Plant response rating, Pigweed [17, 21]: 100
- Plant response rating, Foxtail, Giant [18, 19]: 95
- Plant response rating, Foxtail, Giant [18, 20]: 100
- Plant response rating, Foxtail, Giant [18, 21]: 100

Compound: O=C1CCCC(O)=C1C(=O)c1cnc(-c2ccsc2)n(C2CCOCC2)c1=O [Compound 186]
- Plant response rating, Chickweed [1, 19]: 95
- Plant response rating, Chickweed [1, 20]: 100
- Plant response rating, Chickweed [1, 21]: 100
- Barley plant response rating (0 to 100 scale) ([2]; 13 to 15 days): 5
- Plant response rating, Barley [2, 19]: 0
- Plant response rating, Barley [2, 20]: 5
- Plant response rating, Barley [2, 21]: 5
- Plant response rating, Canarygrass [3, 19]: 5
- Plant response rating, Canarygrass [3, 20]: 40
- Plant response rating, Canarygrass [3, 21]: 40
- Bromegrass, Downy plant response rating (0 to 100 scale) ([4]; 13 to 15 days): 25
- Plant response rating, Bromegrass, Downy [4, 19]: 5
- Plant response rating, Bromegrass, Downy [4, 20]: 30
- Plant response rating, Bromegrass, Downy [4, 21]: 50
- Plant response rating, Wheat [5, 19]: 0
- Plant response rating, Wheat [5, 20]: 0
- Plant response rating, Wheat [5, 21]: 5
- Plant response rating, Morningglory [6, 19]: 95
- Plant response rating, Morningglory [6, 20]: 100
- Plant response rating, Morningglory [6, 21]: 100
- Plant response rating, Johnsongrass [7, 19]: 65
- Plant response rating, Johnsongrass [7, 20]: 75
- Plant response rating, Johnsongrass [7, 21]: 100
- Bermudagrass plant response rating (0 to 100 scale) ([8]; 13 to 15 days): 80
- Plant response rating, Bermudagrass [8, 19]: 80
- Plant response rating, Bermudagrass [8, 20]: 95
- Plant response rating, Bermudagrass [8, 21]: 98
- Plant response rating, Goosegrass [9, 19]: 85
- Plant response rating, Goosegrass [9, 20]: 98
- Plant response rating, Goosegrass [9, 21]: 100
- Plant response rating, Ragweed [10, 19]: 85
- Plant response rating, Ragweed [10, 20]: 100
- Plant response rating, Ragweed [10, 21]: 100
- Plant response rating, Corn [11, 19]: 10
- Plant response rating, Corn [11, 20]: 30
- Plant response rating, Corn [11, 21]: 65
- Plant response rating, Foxtail, Green [12, 19]: 50
- Plant response rating, Foxtail, Green [12, 20]: 85
- Plant response rating, Foxtail, Green [12, 21]: 95
- Plant response rating, Ryegrass, Italian [13, 19]: 0
- Plant response rating, Ryegrass, Italian [13, 20]: 0
- Plant response rating, Ryegrass, Italian [13, 21]: 30
- Blackgrass plant response rating (0 to 100 scale) ([14]; 13 to 15 days): 0
- Plant response rating, Blackgrass [14, 19]: 0
- Plant response rating, Blackgrass [14, 20]: 5
- Plant response rating, Blackgrass [14, 21]: 20
- Plant response rating, Soybean [15, 19]: 85
- Plant response rating, Soybean [15, 20]: 100
- Plant response rating, Soybean [15, 21]: 100
- Plant response rating, Velvetleaf [16, 19]: 70
- Plant response rating, Velvetleaf [16, 20]: 100
- Plant response rating, Velvetleaf [16, 21]: 100
- Plant response rating, Pigweed [17, 19]: 85
- Plant response rating, Pigweed [17, 20]: 100
- Plant response rating, Pigweed [17, 21]: 100
- Plant response rating, Foxtail, Giant [18, 19]: 75
- Plant response rating, Foxtail, Giant [18, 20]: 95
- Plant response rating, Foxtail, Giant [18, 21]: 95
